Laboratory results from patent US20150257378A1, “PHEROMONE ATTRACTANTS FOR TAWNY CRAZY ANTS” (STERLING INTERNATIONAL INC., priority 2014, published 2015).

Legend:
N. fulva workers = test: Field trapping experiments with baited sticky traps; assay type: in vivo, Nylanderia fulva; settings: for attraction compared with blank control: Exp. 8, full factorial design, n-undecane 6-7 mg/day, 2-tridecanone 1 mg/day, formic acid 27-30 mg/d, three days
Protocol: Nine field trapping experiments were carried out in an old oak woodland with sandy soil and low grass understory at La Marque, Tex., USA (29° 21′23.73″N; 95° 0′9.47″W), using Terro® “Spider & Insect Traps” (sticky traps; Woodstream Corporation, Lititz, Pa.) or Rescue!® crawling insect sticky traps (described, for example in U.S. Application Publication No. 2013/0318860 A1, herein incorporated by reference in its entirety). All the tested dispensers were placed in the center of sticky surface on the bottom of the trap. An unbaited sticky trap was included in each experiment block for all the experiments as a blank control.
Experiments 1 and 2 were conducted simultaneously in summer. Exp. 1 tested two synthetic Dufour's gland pheromone candidate mixtures identified from N. fulva workers (treatment “A”: a mix of eight compounds at near natural ratios from workers: n-undecane, 2-tridecanone, n-decane, 1-undecene, n-tridecane, 2-dodecanone, 2-tetradecanone, 2-pentadecanone; 41:53:1.2:0.5:1:2:0.3:1) and queens (treatment “B”: a mix of four compounds at near natural ratios: n-undecane, 2-tridecanone, n-tridecane and 2-pentadecanone; 54:40:1:5) plus a synthetic binary blend of the two major components (undecane and 2-tridecanone at 50:50 ratio) identified from both workers and queens (treatment “C”) (Table in FIG. 3) using centrifuge tube dispensers with low loading (30 mg each mixture on a small cotton ball inside an open cap 2-ml centrifuge dispenser) at about 2 mg/day (mg/d) release in a randomized block design (6 blocks) using Terro® “Spider & Insect Traps”. Traps were placed on the ground in lines with 2 meters (m) between traps within each set, 3 m between trap sets. […] Experiment 2 was distanced about 15 m away from Exp. 1. The tawny crazy ant population level at the testing site was relatively high and ubiquitous throughout the landscape, as the tawny crazy ant population was actively foraging over the entire surface of the woodland understory and up every tree. The weather was sunny with a mean daily temperature of 28.6° C.
Experiments 3 and 4 were conducted simultaneously in the fall. Exp. 3 tested two synthetic Dufour's gland pheromone candidate mixtures mimicking the N. fulva workers (treatment “A”: a mix of eight compounds; 100 mg loading) and queens (treatment “B”: a mix of four compounds; 100 mg loading) using centrifuge dispensers (with one small cotton ball in each) with low release rate (ca. 2 mg/d), one positive control (treatment “C”: yellow plastic cap loaded with 1 g of Advance® Granular Carpenter Ant Bait, BASF Corporation, NJ, USA), plus a blank control (“D”), in a randomized block design (6 blocks/sets) using the Rescue!® crawling insect sticky traps. Same as in Exp. 1-2, the traps were placed were placed on the ground in lines with 2 m between traps within each set, 3 m between trap sets. […] Exp. 4 was distanced 20 m from Exp. 3. The weather was sunny with a mean daily temperature of 23.4° C. for days 1 and 2. On Day 3 the weather was overcast with a mean daily temperature of 25.3° C. and 0.97 cm of rainfall.
Experiments 5 and 6 were conducted simultaneously in late fall. Exp. 5 tested potential attraction of N. fulva workers to a synthetic mixture mimicking the full blend of N. fulva worker Dufour's gland pheromone (treatment “A”: a mix of eight compounds; 100 mg mixed with 400 μl canola oil (CO) from a stickpack dispenser; 8-12 mg/d), a synthetic pheromone candidate of N. fulva poison gland, formic acid (FA) (treatment “B”; 438 mg FA mixed with 812 mg of polyurethane inside an open 2-ml centrifuge tube; at 27-30 mg/d release) and their combination (treatment “C”) plus a blank control (“D”) in a randomized block design (6 blocks/sets) using the Rescue!® crawling insect sticky traps. Traps were again placed on the ground in lines with 2 m between traps within each set, 3 m between trap sets.

[1] = tested on: workers of the red imported fire ants; settings: contact/fumigation; cited from earlier work
[2] = tested on: Argentine ant (Linepithema humile) workers; settings: mixed with the baits; cited from earlier work
L. humile workers = settings: mixed in insecticide sprays; cited from earlier work

| Compound | attraction compared with blank control (N. fulva workers) | toxicity to fire ant workers [1] | effect on consumption of sugar-based liquid baits by ant workers [2] | effect on killing efficacy of insecticides (L. humile workers) | significance of difference from blank control (N. fulva workers; Exp. 5, late fall, low temperature and rain) | N. fulva workers caught compared with blank control (in words) (N. fulva workers; Exp. 5, late fall, low temperature and rain, mix of 8 at 8-12 mg/d, formic acid at 27-30 mg/d) | attraction of N. fulva workers (N. fulva workers; Exp. 7, summer, high ant populations, mix of 8 at 8-12 mg/d, formic acid at 27-30 mg/d) | attraction of tawny crazy ant workers (N. fulva workers; Exp. 9, fall, n-undecane from stickpack at 9-11 mg/d) |
| --- | --- | --- | --- | --- | --- | --- | --- | --- |
| CCCCCCCCCCCC(C)=O [2-tridecanone] | not different from the blank control | strong contact/fumigation toxicity |  |  |  |  |  |  |
| CCCCCC/C=C\CCCCCCCC=O [Z-9-hexadecenal] |  |  | increase the consumption | increase the killing efficacy |  |  |  |  |
| O=CO [formic acid] | not different from the blank control | strong contact/fumigation toxicity |  |  | no significant differences | twice as many | inactive |  |
| CCCCCCCCCCC [n-undecane] | significantly attractive | strong contact/fumigation toxicity |  |  |  |  |  | weakly, but significantly attractive |
